Results on 2 substances are retold here after patent US8466259B2, “Adjuvants” (National Health Research Institutes, priority 2007, dated 2013).

Assay [1] deals with rE7m. In words: Anti-E7m IgG ELISA after immunization of mice with rE7m with or without lipo-Nter (Example 5). Type of assay: in vivo, mouse. As to conditions: subcutaneous, combined with 20 μg rE7m, two immunizations at two-week intervals. On the procedure:
Five mice (6-8 weeks old) were immunized subcutaneously with 20 μg of rE7m with or without lipo-Nter. The mice were given two immunizations at two-week intervals. Blood was collected from each mouse at different time points as indicated. Sera were prepared and stored at −80° C. until use. The level of anti-E7m IgG in the serum samples was determined by titrating the samples in 96-well plates coated with purified rE7m. Bound IgG was detected with horseradish peroxidase-conjugated goat anti-mouse IgG Fc. After the addition of TMB, the absorbance was measured with an ELISA reader at 450 nm.
In general terms: ELISA stands for enzyme-linked immunosorbent assay.

Assay [2] has as its system TC-1 cells (expressed HPVE7 cells). In words: TC-1 tumor growth inhibition, rE7m with or without lipo-Nter (Example 6). As to conditions: mice with TC-1 tumors, immunized once subcutaneously at day 7, combined with 20 μg rE7m. The assay is classed as in vivo, mouse. On the procedure: In this example, assays were conducted to examiner whether the lipo-Nter combined with rE7m can increase the tumor growth inhibition ability. Six mice (6-8 weeks old) were inoculated with 2×10^5 TC-1 cells (expressed HPVE7 cells) at day 0. After 7 days, mice were immunized once subcutaneously with 20 μg of rE7m with or without lipo-Nter. The tumor size was monitored every 2-3 days until tumor volumes higher than 3000 mm^3. The tumor volumes were calculated based on the formula length×width×width/2.

In assay [3] the target is T1, TLR2 (Homo sapiens, UniProt O60603).
T1 construct: FLAG; host or cells: HEK293
In words: NF-kB luciferase reporter assay in TLR2-transfected HEK293 cells. Type of assay: cell-based. On the procedure:
HEK293 cells were plated onto 24-well plates (2×10^5 cells/well) and cotransfected with 0.1 μg of pFLAG-TLR2, 0.01 μg of pNF-kB-luc, and 0.01 μg of the pRL-TK internal control plasmid (Promega, Madison, Wis.) using lipofectamine 2000 (Invitrogen, Carlsbad, Calif.). After 24 h, the transfected cells were stimulated with various synthetic lipopeptide or recombinant proteins for 24 h. The cells were lysed so that the luciferase activity could be measured using a dual-luciferase reporter assay system (Promega Co., Madison, Wis.). Firefly-luciferase activities were related to Renilla-luciferase activities for the purposes of normalization. Both firefly and Renilla luciferase activities were monitored using a Berthold Orion II luminometer (Pforzheim, Germany).
On the technique in general: A reporter such as luciferase makes a cellular process visible.

Assay [4] deals with bone marrow-derived dendritic cells. In words: lipo-Nter stimulation of BM-DCs, cytokine ELISA (Example 4). The assay is classed as cell-based, mouse. As to conditions: lipo-Nter 100 nM. On the procedure: BM-DCs were harvested as previously described (Lutz et al., 1999). Briefly, femurs and tibiae of 6-8 week old female mice were removed, and the bone marrow cells were dispersed by vigorous pipetting. After removing red blood cells with lysis buffer, the isolated bone marrow cells were resuspended to a density of 2−5×10^5/ml cells with RPMI-10: RPMI-1640 (GIBCO BRL, Grand Island, N.Y.) supplemented with 10% P/S, L-glutamine (2 mM, Sigma), 2-mercaptoethanol (50 μM, Sigma), and 10% heat-inactivated FBS. On days 0, 3, and 6, bone marrow cells were added to Petri dishes containing 200 U/mL (20 ng/ml) of recombinant mouse granulocyte macrophage colony stimulating factor (MoGM-CSF, Peprotech, Rocky Hill, N.J.) in RPMI-10. At day 6, either LPS (0.01 μg/ml), lipo-Nter (100 nM) was added. Generally, immature dendritic cells made up 70% of the total cell population. The production of cytokines by BM-DCs was determined using ELISA. Briefly, 100 μL of anti-cytokine (10 μg/ml of IL-12p40, TNF-α) antibodies (R&D system Inc. Minneapolis, Minn.) were coated onto 96-well microtiter plates with 0.1 M carbonate buffer, pH 9.6, following overnight incubation at 4° C. […] The plates were read at 450 nm using an ELISA plate reader (Molecular Devices, CA). The production levels of the cytokines were calculated by subtracting the values obtained for non-stimulated groups.

For assay [5], the system named is TC-1 cells (expressed HPVE7 cells). In words: TC-1 tumor growth inhibition, E7-derived peptide RAH with Pam3 or lipo-Nter (Example 7). The assay is classed as in vivo, mouse. As to conditions: mice with TC-1 tumors, immunized once subcutaneously at day 7, combined with 20 μg E7-derived peptide RAH. As for the experimental part: Six mice (6-8 weeks old) were inoculated with 2×10^5 TC-1 cells (expressed HPVE7 cells) at day 0. After 7 days, mice were immunized once subcutaneously with 20 μg of E7-derived peptide in the presence of tripamitoylated peptide Pam3 or lipo-Nter. The tumor size was monitored every 2-3 days until tumor volumes higher than 3000 mm^3. The tumor volumes were calculated based on the formula length×width×width/2.

The test system of assay [6] is p38, ERK1/2 and JNK1/2 in BM-DCs. In words: Western blot analysis of p38, ERK1/2, JNK1/2 phosphorylation in BM-DCs. Type of assay: cell-based, mouse. As to conditions: 100 nM. On the procedure: The BM-DCs were grown in DMEM or RPMI medium without FBS for 16-18 h and then stimulated with 100 nM of the indicated lipopeptides or lipoprotein for 10, 20, 40, 60, 90, or 120 minutes at 37° C. These treated BM-DCs were then lysed in 25 mM HEPES, 150 mM NaCl, 1 mM EDTA, 1 mM EGTA, 10% glycerol, 1% Triton X-100, 10 mM sodium pyrophosphate, 20 mM b-glycerophosphate, Na3VO4, 10 mM NaF, […], and 1 mM PMSF. The concentration of the protein lysates was determined using the BCA protein assay kit (Pierce, Rockford, Ill.). Fifty microgram of lysates were electrophoresed per lane of a 10% SDS-PAGE gel. After the resolved lysates in the gel were transferred to a PVDF membrane, the membranes were blocked with 5% milk and 0.05% Tween-20. The membranes were incubated with antibodies against p38, pp38, pERK1/2, or pJNK1/2 in 5% w/v BSA, 1×PBS and 0.1% Tween-20. Anti-p38 antibody was used as a control for the protein loading level in each lane. The membrane was developed using the LumiGLO® Chemiluminescent Substrate system (Millipore, Billerica, Mass.). The total p38 level was used for normalization, and the induction of pp38 was determined using image analysis software (Image J1.41, NIH, Bethesda, Md.). Relative phosphorylation was calculated as the (density of pp38/density of p38)×100.
A general note: In western blotting, separated proteins are transferred to a membrane and probed.

Assay [7] has as its system BM-DCs. The experiment in a line: Real-time quantitative PCR of cytokine/chemokine gene expression in BM-DCs. As to conditions: 100 nM, 2 or 4 hours. Type of assay: cell-based, mouse. As for the experimental part: The BM-DCs were purified using the Dynabeads® Mouse DC Enrichment Kit (Invitrogen Dynal AS, Oslo, Norway) according to the manufacturer's instructions to 60 90%. The purified BM-DCs were stimulated using medium alone, or with 100 nM of Pam3, BPPcysPEG or rlipo-D1E3, at 37° C. for 2 or 4 hours. Total RNA was extracted from the isolated cells using the RNeasy mini kit (Qiagen, Valencia, Calif.) following the manufacturer's instructions. RNA (0.5-1 μg) was reverse-transcribed to cDNA using an oligo-dT primer in a 20 μl volume and SuperScript III RT (Invitrogen, Carlsbad, Calif.). The mouse Universal Probe Library (UPL) set (Roche, Mannheim, Germany) was used to perform the real-time qPCR assay for gene expression in isolated cell populations (Liu et al. (2007) J Leukoc Biol 82, 354-360.).
The reaction mixture contained 5 ng cDNA, 0.2 μM primers, and LightCycler 480 Probe Master (Roche), and the reagents were reacted in a LightCycler 480 system (Roche). All qPCRs were carried out using an initial denaturation step at 95° C. for 10 min, followed by 45 cycles of 95° C. for 10 s, 60° C. for 20 s, and 72° C. for 2 s. Target gene expression was normalization to HPRT gene expression. The relative gene expression levels were calculated by comparing the expression levels after treatment with various stimulators to those obtained using medium alone. […]

T1 sequence (O60603 21-784): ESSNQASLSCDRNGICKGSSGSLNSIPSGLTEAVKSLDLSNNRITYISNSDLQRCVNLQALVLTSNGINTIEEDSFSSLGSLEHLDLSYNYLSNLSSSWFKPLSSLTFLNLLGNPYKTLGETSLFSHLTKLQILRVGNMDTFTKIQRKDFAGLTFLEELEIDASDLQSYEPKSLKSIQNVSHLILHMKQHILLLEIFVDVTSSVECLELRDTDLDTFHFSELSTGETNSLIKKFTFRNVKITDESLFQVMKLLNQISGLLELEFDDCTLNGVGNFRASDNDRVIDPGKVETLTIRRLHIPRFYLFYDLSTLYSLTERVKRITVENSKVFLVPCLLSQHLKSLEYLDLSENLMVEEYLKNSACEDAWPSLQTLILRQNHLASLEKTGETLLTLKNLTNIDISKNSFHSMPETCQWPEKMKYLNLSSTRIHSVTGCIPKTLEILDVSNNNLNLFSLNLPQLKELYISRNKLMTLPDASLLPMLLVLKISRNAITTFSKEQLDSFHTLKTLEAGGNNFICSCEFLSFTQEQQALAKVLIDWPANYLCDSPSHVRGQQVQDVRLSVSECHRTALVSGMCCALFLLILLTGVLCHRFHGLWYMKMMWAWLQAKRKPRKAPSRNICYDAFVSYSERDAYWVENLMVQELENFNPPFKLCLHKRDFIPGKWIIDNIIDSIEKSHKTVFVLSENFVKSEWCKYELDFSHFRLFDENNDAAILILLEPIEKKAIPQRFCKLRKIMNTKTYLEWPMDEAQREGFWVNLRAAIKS

On to “N-acyl-S-diacylglyceryl-CSQEAK [lipo-Nter]”, for which, in assay [1], the “anti-E7 antibody (anti-E7m IgG in serum)” value was “enhanced anti-E7 antibody”. Moreover, the “anti-tumor activity (tumor volume)” value in assay [2] is recorded as “anti-tumor activity stronger than that of rE7m alone”. The “activation of NF-κB signaling through TLR2” value in assay [3] (purified lipo-Nter) is “activate NF-κB signaling through TLR2”. Besides, the “secretion of TNF-α and IL-12p40” value in assay [4] was “stimulated bone marrow-derived dendritic cells to secrete TNF-α and IL-12p40”. The “tumor growth inhibition (tumor volume)” value in assay [5] was “could inhibit tumor growth”.
As for “S-[2,3-bispalmitoyloxy-[2R]-propyl-[R]-cysteinyl-amido polyethyleneglycol [BPPcysPEG]”, the “time after which phosphorylation dropped down to basal levels” value in assay [6] came to 60 min. For the same substance, in assay [6] (compared with Pam3 and rlipo-D1E3), the “level of the phosphorylation of p38, ERK1/2, JNK1/2” value is listed as “higher level”. Besides, the “time of highest induced level of phosphorylation of p38, ERK1/2 and JNK1/2” value in assay [6] (measured 0-120 min) amounted to 10 min. In addition, the NF-κB signaling activities result in assay [3] (at 0.1 or 1 nM concentration, compared among Pam3, rlipo-D1E3 and BPPcysPEG) was “highest NF-κB signaling activities”. Further, the “dose response of TLR2-dependent NF-κB activation” value in assay [3] (range from 1 μM to 100 nM) is recorded as “stronger activation of TLR2”. Moreover, the “IL-10, TGFβ and CXCL1 expression levels” value in assay [7] (compared among Pam3, BPPcysPEG and rlipo-D1E3) was “similar”. In addition, the “expression levels of IL-13” value in assay [7] (compared to Pam3) is “higher expression levels”.
